Measured values reported in ChEMBL document CHEMBL5465560, “Selectivity Literature for EUbOPEN Chemogenomic Library” (2024).

What was measured:
[1] = biological target: Atypical kinase COQ8A, mitochondrial (Homo sapiens, UniProt Q8NI60); assay: Selectivity interaction (Competition-binding assay (DiscoverX)) EUB0000229b ADCK3
[2] = biological target: T1, Mitogen-activated protein kinase kinase kinase 2 (Homo sapiens) (UniProt Q9Y2U5); assay: Selectivity interaction (KinomeScan (DiscoverX)) EUB0000229b MAP3K2; conditions: at 10 µM
T1 sequence (whole entry): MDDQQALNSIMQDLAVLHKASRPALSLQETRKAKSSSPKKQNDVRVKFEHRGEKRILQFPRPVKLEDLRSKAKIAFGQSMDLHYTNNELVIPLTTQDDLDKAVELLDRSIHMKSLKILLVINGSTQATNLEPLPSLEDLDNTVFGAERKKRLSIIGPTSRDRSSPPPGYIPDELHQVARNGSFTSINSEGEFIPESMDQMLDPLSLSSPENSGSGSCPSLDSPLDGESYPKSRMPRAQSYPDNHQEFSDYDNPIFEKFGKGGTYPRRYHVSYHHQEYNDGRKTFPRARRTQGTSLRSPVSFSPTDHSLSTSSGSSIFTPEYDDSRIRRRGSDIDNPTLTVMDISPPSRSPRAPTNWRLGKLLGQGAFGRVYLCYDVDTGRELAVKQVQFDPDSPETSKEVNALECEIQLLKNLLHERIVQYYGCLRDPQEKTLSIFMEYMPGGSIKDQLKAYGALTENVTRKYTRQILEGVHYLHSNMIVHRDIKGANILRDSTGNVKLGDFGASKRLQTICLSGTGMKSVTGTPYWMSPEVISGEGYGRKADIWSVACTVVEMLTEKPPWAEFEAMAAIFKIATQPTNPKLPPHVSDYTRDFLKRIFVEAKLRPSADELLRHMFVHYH

[3] = biological target: Serine/threonine-protein kinase tousled-like 2 (Homo sapiens) (UniProt Q86UE8); assay: Selectivity interaction (KinomeScan (DiscoverX)) EUB0000229b TLK2; conditions: at 10 µM
Sequence of Serine/threonine-protein kinase tousled-like 2 (Homo sapiens) (Q86UE8 whole entry, looked up): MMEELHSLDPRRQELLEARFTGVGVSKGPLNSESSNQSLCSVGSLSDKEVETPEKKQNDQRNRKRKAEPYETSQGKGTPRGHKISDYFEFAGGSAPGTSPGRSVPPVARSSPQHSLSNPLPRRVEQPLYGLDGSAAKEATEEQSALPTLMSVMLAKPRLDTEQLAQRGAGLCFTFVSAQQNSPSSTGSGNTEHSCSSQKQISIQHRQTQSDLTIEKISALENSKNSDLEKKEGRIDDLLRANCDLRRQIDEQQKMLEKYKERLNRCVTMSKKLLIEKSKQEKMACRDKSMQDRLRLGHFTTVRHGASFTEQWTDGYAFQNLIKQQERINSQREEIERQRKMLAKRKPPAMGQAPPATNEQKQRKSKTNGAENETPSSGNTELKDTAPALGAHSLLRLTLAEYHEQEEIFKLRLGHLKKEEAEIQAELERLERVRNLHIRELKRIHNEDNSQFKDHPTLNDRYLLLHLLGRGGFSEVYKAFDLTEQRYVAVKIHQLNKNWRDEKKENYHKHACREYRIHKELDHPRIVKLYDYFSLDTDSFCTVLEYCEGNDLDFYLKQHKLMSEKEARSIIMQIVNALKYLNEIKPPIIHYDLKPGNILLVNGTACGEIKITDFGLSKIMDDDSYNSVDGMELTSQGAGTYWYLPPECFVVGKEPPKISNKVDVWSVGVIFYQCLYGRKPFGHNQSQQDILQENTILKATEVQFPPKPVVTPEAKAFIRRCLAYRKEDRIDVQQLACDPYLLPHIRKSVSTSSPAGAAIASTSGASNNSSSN

[4] = biological target: T2, Serine/threonine-protein kinase TAO3 (Homo sapiens) (UniProt Q9H2K8); assay: Selectivity interaction (KinomeScan (DiscoverX)) EUB0000092b TAOK3; conditions: at 10 µM
T2 sequence (whole entry): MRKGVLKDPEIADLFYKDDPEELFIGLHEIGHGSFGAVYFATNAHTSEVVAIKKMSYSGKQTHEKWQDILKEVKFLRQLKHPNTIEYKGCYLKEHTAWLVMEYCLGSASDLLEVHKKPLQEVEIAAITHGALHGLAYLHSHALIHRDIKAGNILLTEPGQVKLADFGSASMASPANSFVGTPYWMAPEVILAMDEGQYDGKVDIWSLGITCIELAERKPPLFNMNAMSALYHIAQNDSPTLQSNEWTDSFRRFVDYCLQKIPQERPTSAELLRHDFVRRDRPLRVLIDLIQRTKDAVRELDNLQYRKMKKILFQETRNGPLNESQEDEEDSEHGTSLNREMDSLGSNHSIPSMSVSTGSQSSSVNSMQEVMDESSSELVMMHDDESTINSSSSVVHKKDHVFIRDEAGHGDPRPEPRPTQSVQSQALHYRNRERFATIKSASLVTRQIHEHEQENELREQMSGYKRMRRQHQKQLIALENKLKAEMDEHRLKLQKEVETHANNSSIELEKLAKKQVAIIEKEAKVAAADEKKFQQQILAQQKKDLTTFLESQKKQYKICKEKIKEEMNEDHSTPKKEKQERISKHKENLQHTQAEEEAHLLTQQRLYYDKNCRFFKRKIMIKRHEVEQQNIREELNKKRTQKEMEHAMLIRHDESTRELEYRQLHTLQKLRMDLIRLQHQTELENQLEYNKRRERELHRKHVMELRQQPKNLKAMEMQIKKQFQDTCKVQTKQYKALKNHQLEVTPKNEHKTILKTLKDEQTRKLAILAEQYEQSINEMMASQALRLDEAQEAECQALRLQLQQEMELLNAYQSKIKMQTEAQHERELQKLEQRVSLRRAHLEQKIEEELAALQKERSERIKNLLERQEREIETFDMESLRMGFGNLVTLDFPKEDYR

[5] = biological target: Serine/threonine-protein kinase WNK3 (Homo sapiens) (UniProt Q9BYP7); assay: Selectivity interaction (Ambit KINOMEscan and KiNATiv profiling in Jurkat cells) EUB0000090b WNK3; assay type: cell-based; conditions: at 1 µM
Sequence of Serine/threonine-protein kinase WNK3 (Homo sapiens) (Q9BYP7 whole entry): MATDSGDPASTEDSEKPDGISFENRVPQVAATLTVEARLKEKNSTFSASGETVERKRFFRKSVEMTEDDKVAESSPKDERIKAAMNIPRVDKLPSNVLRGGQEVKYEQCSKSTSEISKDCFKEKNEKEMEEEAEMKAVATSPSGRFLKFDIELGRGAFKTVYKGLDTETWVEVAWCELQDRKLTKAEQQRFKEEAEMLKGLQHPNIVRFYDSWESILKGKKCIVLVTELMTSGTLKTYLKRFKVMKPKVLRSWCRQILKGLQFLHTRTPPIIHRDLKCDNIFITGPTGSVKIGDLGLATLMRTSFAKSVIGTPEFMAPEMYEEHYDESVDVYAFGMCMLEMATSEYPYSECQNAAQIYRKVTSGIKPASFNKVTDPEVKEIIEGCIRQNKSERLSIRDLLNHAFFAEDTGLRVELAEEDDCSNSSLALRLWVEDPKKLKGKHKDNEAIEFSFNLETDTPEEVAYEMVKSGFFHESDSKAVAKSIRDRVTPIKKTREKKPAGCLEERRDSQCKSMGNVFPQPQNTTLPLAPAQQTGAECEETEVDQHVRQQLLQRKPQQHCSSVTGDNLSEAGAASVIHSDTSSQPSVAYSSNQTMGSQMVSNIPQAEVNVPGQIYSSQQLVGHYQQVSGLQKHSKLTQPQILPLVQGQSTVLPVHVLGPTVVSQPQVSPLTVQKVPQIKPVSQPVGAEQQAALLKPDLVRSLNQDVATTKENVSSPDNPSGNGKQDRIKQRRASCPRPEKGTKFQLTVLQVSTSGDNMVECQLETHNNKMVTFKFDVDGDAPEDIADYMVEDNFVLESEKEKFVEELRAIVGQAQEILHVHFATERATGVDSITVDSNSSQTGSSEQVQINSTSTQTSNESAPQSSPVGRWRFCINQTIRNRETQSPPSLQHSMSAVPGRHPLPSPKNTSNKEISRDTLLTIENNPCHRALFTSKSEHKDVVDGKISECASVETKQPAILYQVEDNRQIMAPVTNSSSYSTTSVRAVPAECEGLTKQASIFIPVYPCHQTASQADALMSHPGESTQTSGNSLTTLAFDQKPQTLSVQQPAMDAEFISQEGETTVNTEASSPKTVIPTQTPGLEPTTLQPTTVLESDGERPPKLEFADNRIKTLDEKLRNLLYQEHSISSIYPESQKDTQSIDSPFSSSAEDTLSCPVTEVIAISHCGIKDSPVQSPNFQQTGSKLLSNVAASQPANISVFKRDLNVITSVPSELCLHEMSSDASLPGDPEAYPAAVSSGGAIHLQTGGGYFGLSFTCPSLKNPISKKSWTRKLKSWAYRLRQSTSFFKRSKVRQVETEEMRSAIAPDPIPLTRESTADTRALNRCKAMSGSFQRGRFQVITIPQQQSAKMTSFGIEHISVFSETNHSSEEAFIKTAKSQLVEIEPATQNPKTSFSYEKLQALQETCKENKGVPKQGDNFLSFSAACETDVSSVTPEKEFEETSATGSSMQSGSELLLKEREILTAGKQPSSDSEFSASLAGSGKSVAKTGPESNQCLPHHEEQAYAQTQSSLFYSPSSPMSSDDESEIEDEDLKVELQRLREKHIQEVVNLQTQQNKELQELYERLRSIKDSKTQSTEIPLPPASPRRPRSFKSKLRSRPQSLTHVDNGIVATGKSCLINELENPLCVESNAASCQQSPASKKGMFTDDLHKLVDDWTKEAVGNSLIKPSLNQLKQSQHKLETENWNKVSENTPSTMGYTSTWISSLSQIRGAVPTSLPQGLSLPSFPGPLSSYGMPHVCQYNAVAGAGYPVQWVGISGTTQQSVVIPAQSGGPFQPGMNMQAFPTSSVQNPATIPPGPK

[6] = biological target: Tyrosine-protein kinase BTK (Homo sapiens, UniProt Q06187); conditions: at 10 µM
Sequence of Tyrosine-protein kinase BTK (Q06187 whole entry): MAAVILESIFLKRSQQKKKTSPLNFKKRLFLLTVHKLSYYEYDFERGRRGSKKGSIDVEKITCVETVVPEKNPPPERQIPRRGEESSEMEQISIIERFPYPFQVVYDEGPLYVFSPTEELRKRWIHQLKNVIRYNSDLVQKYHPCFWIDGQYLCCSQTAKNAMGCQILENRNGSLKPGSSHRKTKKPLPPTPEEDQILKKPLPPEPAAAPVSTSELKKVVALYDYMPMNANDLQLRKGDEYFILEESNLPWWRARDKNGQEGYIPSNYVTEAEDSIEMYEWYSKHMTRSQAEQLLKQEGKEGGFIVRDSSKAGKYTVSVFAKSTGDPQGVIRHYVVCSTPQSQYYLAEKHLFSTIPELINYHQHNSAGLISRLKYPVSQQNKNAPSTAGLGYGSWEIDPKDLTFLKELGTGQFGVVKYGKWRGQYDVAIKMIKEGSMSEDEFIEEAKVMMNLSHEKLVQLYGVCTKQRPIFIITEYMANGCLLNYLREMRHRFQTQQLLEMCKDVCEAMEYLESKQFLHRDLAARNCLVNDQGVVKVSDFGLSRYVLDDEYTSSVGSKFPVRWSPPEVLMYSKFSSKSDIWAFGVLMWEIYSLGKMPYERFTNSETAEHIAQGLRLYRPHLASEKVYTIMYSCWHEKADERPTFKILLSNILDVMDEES

[7] = biological target: T3, Phosphatidylinositol 5-phosphate 4-kinase type-2 gamma (Homo sapiens) (UniProt Q8TBX8); assay: Selectivity interaction (ActivX KiNativ screen (ex vivo kinase selectivity in human PBMCs)) EUB0001619a PIP4K2C; assay type: cell-based; conditions: PBMC, at 1 µM
T3 sequence (whole entry): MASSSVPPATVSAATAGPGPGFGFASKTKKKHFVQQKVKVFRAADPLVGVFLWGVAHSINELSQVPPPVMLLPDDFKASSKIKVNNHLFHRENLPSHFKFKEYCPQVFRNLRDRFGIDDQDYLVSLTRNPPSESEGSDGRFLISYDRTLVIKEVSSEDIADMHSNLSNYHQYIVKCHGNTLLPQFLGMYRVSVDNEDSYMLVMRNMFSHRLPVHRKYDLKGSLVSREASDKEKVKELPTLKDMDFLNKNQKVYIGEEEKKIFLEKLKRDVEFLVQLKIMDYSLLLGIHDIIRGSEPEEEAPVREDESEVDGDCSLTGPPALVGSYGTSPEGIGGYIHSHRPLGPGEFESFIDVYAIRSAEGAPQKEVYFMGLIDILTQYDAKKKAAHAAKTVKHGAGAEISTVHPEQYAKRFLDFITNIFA

Sequence of Atypical kinase COQ8A, mitochondrial (Q8NI60 whole entry): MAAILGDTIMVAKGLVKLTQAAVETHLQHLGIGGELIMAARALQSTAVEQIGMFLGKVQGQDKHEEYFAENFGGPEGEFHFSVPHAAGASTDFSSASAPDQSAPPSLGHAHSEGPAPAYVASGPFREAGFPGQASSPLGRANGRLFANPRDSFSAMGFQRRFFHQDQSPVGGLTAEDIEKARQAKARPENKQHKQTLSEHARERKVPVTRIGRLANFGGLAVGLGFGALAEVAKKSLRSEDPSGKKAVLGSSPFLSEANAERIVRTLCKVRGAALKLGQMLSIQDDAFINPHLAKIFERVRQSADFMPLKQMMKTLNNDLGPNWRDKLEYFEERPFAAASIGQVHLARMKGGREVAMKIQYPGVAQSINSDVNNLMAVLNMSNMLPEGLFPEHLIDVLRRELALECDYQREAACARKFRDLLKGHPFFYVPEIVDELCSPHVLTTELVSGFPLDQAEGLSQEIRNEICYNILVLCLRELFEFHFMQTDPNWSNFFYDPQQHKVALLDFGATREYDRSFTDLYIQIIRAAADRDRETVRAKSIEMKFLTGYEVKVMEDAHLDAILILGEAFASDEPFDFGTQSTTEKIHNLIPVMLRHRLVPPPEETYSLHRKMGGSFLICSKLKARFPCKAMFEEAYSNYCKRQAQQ

## COc1cc(N(C)c2ccnc3ccc(C(F)(F)F)cc23)cc(OC)c1OC
[1]
  Kd: > 10 µM
[2]
  % binding: 52%
[3]
  % binding: 92%

## CCC(=O)N1CCN(c2ccc(-n3c(=O)ccc4cnc5ccc(-c6cnc7ccccc7c6)cc5c43)cc2C(F)(F)F)CC1
[4]
  % of control: 76%

## CN(C)C/C=C/C(=O)Nc1ccc(C(=O)N2CCCC(Nc3ncc(Cl)c(-c4c[nH]c5ccccc45)n3)C2)cc1 (configuration not stated)
[5]
  % of control: 89%

## C=CC(=O)Nc1cc(-n2c(=O)ccc3cnc4ccc(-c5ccc(NS(C)(=O)=O)cc5)cc4c32)ccc1C
[6]
  % of control: 0.7%

## N#Cc1cccc(-c2c[nH]c3ncnc(N4CCOCC4)c23)c1
[7]
  % of inhibition: 54%
